Reference: patent US20040259176A1, “Structural basis for the guanine nucleotide-binding activity of tissue transglutaminase and its regulation of transamidation activity” (priority 2003, published 2004)

Columns and labels:
Assay type in all cases: cell-based, human
MDAMB231 cells [1] = assay: Nuclear condensation or blebbing assay (doxorubicin-induced apoptosis); conditions: FIG. 11C
Procedure: (§1) FIGS. 1A-D illustrate that the protective effect of EGF from doxorubicin-induced apoptosis is blocked by MDC in SKBR3 cells. In FIG. 11A, nearly confluent cultures of SKBR3 and MDAMB231 cells were placed in low serum medium. The following day, the cells were exposed to low serum medium +/−0.25 μM doxorubicin (Dox) for the times indicated and subsequently lysed. The presence of the activated form of caspase 3 (cleaved caspase 3) and actin (actin) in the cell extracts was assessed by Western blot analysis. In FIG. 11B, SKBR3 and MDAMB231 cells were maintained in low serum medium (0) or treated with 10 μM MDC (MDC) for 1.5 days. During this incubation, the SKBR3 cell cultures were also stimulated with +/−100 ng/ml EGF or +/−5 μM RA. All cell cultures were then treated with +/−0.25 μM doxorubicin (Dox) for about 1 day and the cells were scored for programmed cell death as described in Example 13. The assay was performed three times and the average percentage of cell death was plotted (FIG. 11C).
(§2) NIH3T3 cells were grown in Dulbecco's modified Eagle's medium containing 10% calf serum and 100 units/ml penicillin. SKBR3 and MDAMB231 cells were grown in RPMI 1640 medium containing 10% fetal bovine serum and 100 units/ml penicillin. The cell lines were maintained in a humidified atmosphere with 5% CO2 at 37° C. For the various treatments described, the cells were grown to near confluence in medium containing 10% serum, and then medium containing 1% serum or no serum with 5 μM RA, and/or 100 ng/ml EGF, +/−7 μM LY294002, and +/−0.2 μM doxorubicin were added for the appropriate amount of time. Cells were rinsed with phosphate-buffered saline (PBS) and then lysed with cell lysis buffer (10 mM Na2HPO4, 150 mM NaCl, 1% Triton X-100, 0.5% sodium deoxycholate, 0.1% SDS, 0.004% NaF, 1 mM NaVO4, 25 mM β-glycerophosphoric acid, 100 μg/ml phenylmethanesulfonyl fluoride, and 1 μg/ml each aprotinin and leupeptin, pH 7.35). The lysates were clarified by centrifugation at 12,000×g for 10 minutes at 4° C. Protein concentrations were determined using the Bio-Rad DC protein assay.
(§3) Cells were seeded in 6-well dishes and grown in complete medium for 2 days. The cells were then incubated in medium containing 1% serum +/−5 μM RA, +/−100 ng/ml EGF, and +/−10 μM MDC for 2 days. The cultures were then incubated with fresh medium containing RA, EGF, and MDC and +/−0.2 μM doxorubicin for an additional 1.5 days and were fixed and stained with 4,6-diamidino-2-phenylindole (2 μg/ml) for viewing by fluorescence microscopy. Apoptotic cells were identified by condensed nuclei and/or blebbing.

SKBR3 cells [2] = assay: as above
Procedure: as §1, §2, §3

MDAMB231 cells [3] = assay: Western blot for cleaved (activated) caspase 3; conditions: MDAMB231 cells exposed to doxorubicin; FIG. 11A
Procedure: as §1
(§4) NIH3T3 cells were grown in Dulbecco's modified Eagle's medium containing 10% calf serum and 100 units/ml penicillin. SKBR3 and MDAMB231 cells were grown in RPMI 1640 medium containing 10% fetal bovine serum and 100 units/ml penicillin. The cell lines were maintained in a humidified atmosphere with 5% CO2 at 37° C. […] Protein concentrations were determined using the Bio-Rad DC protein assay. […]

SKBR3 cells [4] = assay: Western blot for cleaved (activated) caspase 3; conditions: 24 hours of incubation with doxorubicin, FIG. 11A
Procedure: as §1, §4

SMILES: CN(C)c1cccc2c(S(=O)(=O)NCCCCCN)cccc12 [MDC, monodansylcadaverine]
- susceptibility to doxorubicin-induced apoptosis compared to doxorubicin treatment alone (MDAMB231 cells [1]; MDAMB231 cells, 10 μM MDC plus doxorubicin): slightly more than twice as susceptible
- effect on the pro-survival effect of EGF from doxorubicin-induced apoptosis (SKBR3 cells [2]; SKBR3 cells incubated with MDC (10 μM), EGF and doxorubicin): nearly completely eliminated the pro-survival effect of EGF

SMILES: COc1cccc2c1C(=O)c1c(O)c3c(c(O)c1C2=O)C[C@@](O)(C(=O)CO)C[C@@H]3O[C@H]1C[C@H](N)[C@H](O)[C@H](C)O1 [doxorubicin]
- cleaved form of caspase 3 (MDAMB231 cells [3]): failed to induce the cleaved form of caspase 3 to the same extent as in SKBR3 cells
- cleaved or activated caspase 3 (SKBR3 cells [4]): easily detected
- apoptotic rate (MDAMB231 cells [1]; MDAMB231 cells exposed to doxorubicin (0.25 μM)): 25%
- cells displaying nuclear condensation or blebbing (SKBR3 cells [2]; SKBR3 cells exposed to doxorubicin (0.25 μM, about 1 day), low serum, FIG. 11B): ~80%
